Reference: patent publication US8471005B2 (Cephalon, Inc., priority 2008, dated 2013)

Legend:
JAK2 = target: T1, JAK2 (Homo sapiens, UniProt O60674); experiment: Recombinant Human JAK2 Kinase Assay (TRF); assay type: biochemical; conditions: JAK2 kinase inhibition, 0.2 μM ATP; read-out: JAK2 Potency
T1 construct: host or cells: baculovirus expression system
Procedure, shortened: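 Kinase activity of baculovirus-expressed JAK2 is followed on a surface-immobilised biotinylated peptide, with the reaction run for 20 min at room temperature in buffer containing 0.2 μM ATP and manganese. Phosphorylation is read with Eu-N1 PY100 antibody.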

ALK = target: T2, ALK (Homo sapiens, UniProt Q9UM73); experiment: ALK Kinase Assay (ELISA/TRF, PLC-γ substrate); assay type: biochemical; conditions: ALK kinase inhibition, 1 μM ATP; read-out: ALK Potency
T2 construct: host or cells: baculovirus expression system
T2 sequence (Q9UM73 19-1620): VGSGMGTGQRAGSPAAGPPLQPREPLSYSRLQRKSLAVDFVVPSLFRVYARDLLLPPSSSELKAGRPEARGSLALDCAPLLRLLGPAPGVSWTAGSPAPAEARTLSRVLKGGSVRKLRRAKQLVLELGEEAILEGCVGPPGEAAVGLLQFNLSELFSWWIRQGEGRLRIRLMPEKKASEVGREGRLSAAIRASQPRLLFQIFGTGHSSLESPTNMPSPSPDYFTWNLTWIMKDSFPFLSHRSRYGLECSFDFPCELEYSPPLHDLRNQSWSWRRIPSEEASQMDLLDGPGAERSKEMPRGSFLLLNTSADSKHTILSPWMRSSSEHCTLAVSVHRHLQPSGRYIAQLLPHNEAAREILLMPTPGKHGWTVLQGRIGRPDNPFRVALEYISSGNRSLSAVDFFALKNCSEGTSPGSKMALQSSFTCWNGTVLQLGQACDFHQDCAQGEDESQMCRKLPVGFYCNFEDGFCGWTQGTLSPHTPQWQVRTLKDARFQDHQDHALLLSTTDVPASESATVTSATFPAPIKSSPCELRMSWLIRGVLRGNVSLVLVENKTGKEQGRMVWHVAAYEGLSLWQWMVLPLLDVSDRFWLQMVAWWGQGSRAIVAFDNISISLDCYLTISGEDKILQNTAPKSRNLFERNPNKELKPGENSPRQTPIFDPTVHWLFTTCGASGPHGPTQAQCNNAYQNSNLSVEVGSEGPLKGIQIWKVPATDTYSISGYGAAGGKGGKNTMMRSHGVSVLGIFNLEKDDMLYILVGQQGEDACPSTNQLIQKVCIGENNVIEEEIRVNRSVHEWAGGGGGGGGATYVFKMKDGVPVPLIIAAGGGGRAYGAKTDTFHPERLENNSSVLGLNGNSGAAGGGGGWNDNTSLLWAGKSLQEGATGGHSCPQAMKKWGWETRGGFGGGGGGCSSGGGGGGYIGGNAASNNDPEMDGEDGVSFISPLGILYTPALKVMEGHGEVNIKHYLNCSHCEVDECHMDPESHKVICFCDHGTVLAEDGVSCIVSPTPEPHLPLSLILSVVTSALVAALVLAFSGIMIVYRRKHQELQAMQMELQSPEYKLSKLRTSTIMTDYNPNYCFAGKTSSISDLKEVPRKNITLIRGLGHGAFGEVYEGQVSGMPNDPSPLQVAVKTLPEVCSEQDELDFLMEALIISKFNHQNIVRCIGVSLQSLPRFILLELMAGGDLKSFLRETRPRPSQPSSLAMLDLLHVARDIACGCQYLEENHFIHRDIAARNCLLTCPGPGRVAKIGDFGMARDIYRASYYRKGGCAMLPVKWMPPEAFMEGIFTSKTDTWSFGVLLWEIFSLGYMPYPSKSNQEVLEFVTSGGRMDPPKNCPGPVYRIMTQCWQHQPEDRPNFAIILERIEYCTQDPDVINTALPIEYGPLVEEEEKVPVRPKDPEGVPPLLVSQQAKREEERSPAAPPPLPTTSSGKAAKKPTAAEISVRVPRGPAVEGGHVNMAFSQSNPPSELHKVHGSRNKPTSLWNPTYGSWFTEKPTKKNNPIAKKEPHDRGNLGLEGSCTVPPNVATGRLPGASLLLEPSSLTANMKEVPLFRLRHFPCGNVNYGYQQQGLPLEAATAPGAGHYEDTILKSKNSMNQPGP
Procedure, shortened: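 Wells were coated with 10 μg/mL phospholipase C-γ substrate in TBS, and the reaction was started by adding 30 ng/ml ALK enzyme and run at 37° C for 15 minutes. Phosphorylated product was detected with Eu-N1-labeled PT66 antibody, and IC50 values came from sigmoidal variable-slope fits of percent inhibition against log concentration.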

T1 sequence (O60674 whole entry): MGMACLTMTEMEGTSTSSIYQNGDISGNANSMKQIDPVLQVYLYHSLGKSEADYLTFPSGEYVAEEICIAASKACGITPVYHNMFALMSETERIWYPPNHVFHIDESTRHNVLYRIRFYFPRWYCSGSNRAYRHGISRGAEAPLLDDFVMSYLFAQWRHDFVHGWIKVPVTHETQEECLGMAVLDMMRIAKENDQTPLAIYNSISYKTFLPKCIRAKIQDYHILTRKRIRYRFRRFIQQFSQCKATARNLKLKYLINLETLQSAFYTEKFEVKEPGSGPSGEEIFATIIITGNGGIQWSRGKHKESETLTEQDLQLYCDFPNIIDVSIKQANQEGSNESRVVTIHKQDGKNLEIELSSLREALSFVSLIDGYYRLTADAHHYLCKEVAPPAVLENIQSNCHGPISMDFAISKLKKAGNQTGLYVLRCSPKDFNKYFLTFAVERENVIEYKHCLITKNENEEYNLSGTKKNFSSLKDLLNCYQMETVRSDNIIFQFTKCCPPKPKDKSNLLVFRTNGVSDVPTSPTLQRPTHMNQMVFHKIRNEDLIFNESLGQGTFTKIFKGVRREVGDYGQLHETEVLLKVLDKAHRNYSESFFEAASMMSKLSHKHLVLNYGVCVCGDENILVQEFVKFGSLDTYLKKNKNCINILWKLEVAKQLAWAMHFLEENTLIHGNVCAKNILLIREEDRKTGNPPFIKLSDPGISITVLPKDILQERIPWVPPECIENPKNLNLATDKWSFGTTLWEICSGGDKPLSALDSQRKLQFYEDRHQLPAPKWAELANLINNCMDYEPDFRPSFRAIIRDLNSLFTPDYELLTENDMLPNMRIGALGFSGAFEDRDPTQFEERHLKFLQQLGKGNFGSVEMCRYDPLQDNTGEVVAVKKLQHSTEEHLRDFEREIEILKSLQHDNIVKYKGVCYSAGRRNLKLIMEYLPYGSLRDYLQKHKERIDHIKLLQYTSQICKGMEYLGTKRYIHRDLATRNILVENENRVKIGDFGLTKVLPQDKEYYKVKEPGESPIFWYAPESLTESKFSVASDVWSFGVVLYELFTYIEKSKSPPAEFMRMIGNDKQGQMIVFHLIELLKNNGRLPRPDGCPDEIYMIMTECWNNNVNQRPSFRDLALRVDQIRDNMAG

| Compound | IC50 (JAK2) [nM] | IC50 (ALK) [nM] |
| --- | --- | --- |
| COc1cc(N2CCCN(C)CC2)ccc1Nc1ncc2ccc(-c3ccccc3N(C)S(C)(=O)=O)n2n1 [Example 771, N-(2-{2-[2-Methoxy-4-(4-methyl-[1,4]diazepan-1-yl)-phenylamino]-pyrrolo[2,1-f][1,2,4]triazin-7-yl}-phenyl)-N-methyl-methanesulfonamide] | 100 to 1000 | < 100 |
| COc1cc(N2CCCN(C[C@@H](C)O)CC2)ccc1Nc1ncc2ccc(-c3ccccc3N(C)S(C)(=O)=O)n2n1 [Example 772, N-[2-(2-{4-[4-((R)-2-Hydroxy-propyl)-[1,4]diazepan-1-yl]-2-methoxy-phenylamino}-pyrrolo[2,1-f][1,2,4]triazin-7-yl)-phenyl]-N-methyl-methanesulfonamide] | 100 to 1000 | < 100 |
| COc1cc(N2CCCN(C[C@H](O)CO)CC2)ccc1Nc1ncc2ccc(-c3ccccc3N(C)S(C)(=O)=O)n2n1 [Example 773, N-[2-(2-{4-[4-((S)-2,3-Dihydroxy-propyl)-[1,4]diazepan-1-yl]-2-methoxy-phenylamino}-pyrrolo[2,1-f][1,2,4]triazin-7-yl)-phenyl]-N-methyl-methanesulfonamide] | 100 to 1000 | < 100 |
| COc1ccc(C2CCN(C)CC2)cc1Nc1ncc2ccc(-c3ccccc3N(C)S(C)(=O)=O)n2n1 [Example 774, N-(2-{2-[2-Methoxy-5-(1-methyl-piperidin-4-yl)-phenylamino]-pyrrolo-[2,1-f][1,2,4]triazin-7-yl}-phenyl)-N-methyl-methanesulfonamide] | 100 to 1000 | < 100 |
| COc1ccccc1-c1ccc2cnc(Nc3cccc(C4CCN(C)CC4)c3OC)nn12 [Example 775, [2-Methoxy-3-(1-methyl-piperidin-4-yl)-phenyl]-[7-(2-methoxy-phenyl)-pyrrolo[2,1-f][1,2,4]triazin-2-yl]-amine] | < 100 | < 100 |
| COc1c(Nc2ncc3ccc(-c4ccccc4N(C)S(C)(=O)=O)n3n2)cccc1C1CCN(C)CC1 [Example 776, N-(2-{2-[2-Methoxy-3-(1-methyl-piperidin-4-yl)-phenylamino]-pyrrolo [2,1-f][1,2,4]triazin-7-yl}-phenyl)-N-methyl-methanesulfonamide] | < 100 | < 100 |
| COc1cc(N2CCC(N3CCCOCC3)CC2)ccc1Nc1ncc2ccc(-c3ccccc3OC)n2n1 [Example 780, [2-Methoxy-4-(4-[1,4]oxazepan-4-yl-piperidin-1-yl)-phenyl]-[7-(2-methoxy-phenyl)-pyrrolo[2,1-f][1,2,4]triazin-2-yl]-amine] | < 100 | < 100 |
| COc1cc(N2CCC(N3CCCN(C)CC3)CC2)ccc1Nc1ncc2ccc(-c3ccccc3OC)n2n1 [Example 781, {2-Methoxy-4-[4-(4-methyl-[1,4]diazepan-1-yl)-piperidin-1-yl]-phenyl}-[7-(2-methoxy-phenyl)-pyrrolo[2,1-f][1,2,4]triazin-2-yl]-amine] | < 100 | < 100 |
| COc1cc(N2CCC(N3CCCOCC3)CC2)ccc1Nc1ncc2ccc(-c3ccccc3N(C)S(C)(=O)=O)n2n1 [Example 783, N-(2-{2-[2-Methoxy-4-(4-[1,4]oxazepan-4-yl-piperidin-1-yl)-henylamino]-pyrrolo[2,1-f][1,2,4]triazin-7-yl}-phenyl)-N-methyl-methanesulfonamide] | 100 to 1000 | < 100 |
| COc1cc(N2CCC(N3CCCN(C)CC3)CC2)ccc1Nc1ncc2ccc(-c3ccccc3N(C)S(C)(=O)=O)n2n1 [Example 784, N-[2-(2-{2-Methoxy-4-[4-(4-methyl-[1,4]diazepan-1-yl)-piperidin-1-yl]-phenylamino}-pyrrolo[2,1-f][1,2,4]triazin-7-yl)-phenyl]-N-methyl-methanesulfonamide] | 100 to 1000 | < 100 |
| COc1cc(C2CCN(C[C@H](Oc3ncc4ccc(-c5ccccc5N(C)S(C)(=O)=O)n4n3)C(F)(F)F)CC2)ccc1N [Example 785, N-[2-(2-{(S)-1-[4-(4-Amino-3-methoxy-phenyl)-piperidin-1-ylmethyl]-2,2,2-trifluoro-ethoxy}-pyrrolo[2,1-f][1,2,4]triazin-7-yl)-phenyl]-N-methyl-methanesulfonamide] | > 10000 | > 10000 |
| COc1cc(C2CCN(C[C@H](Oc3ncc4ccc(-c5ccccc5OC)n4n3)C(F)(F)F)CC2)ccc1N [Example 786, 2-Methoxy-4-(1-{(S)-3,3,3-trifluoro-2-[7-(2-methoxy-phenyl)-pyrrolo[2,1-f][1,2,4]triazin-2-yloxy]-propyl}-piperidin-4-yl)-phenylamine] | > 10000 | > 10000 |
| COc1cc(C2CCN(C[C@@H](C)O)CC2)ccc1Nc1ncc2ccc(-c3ccccc3OC)n2n1 [Example 787, (R)-1-(4-{3-Methoxy-4-[7-(2-methoxy-phenyl)-pyrrolo[2,1-f][1,2,4]triazin-2-ylamino]-phenyl}-piperidin-1-yl)-propan-2-ol] | 100 to 1000 | < 100 |
| COc1cc(C2CCN(C[C@@H](C)O)CC2)ccc1Nc1ncc2ccc(-c3ccccc3N(C)S(C)(=O)=O)n2n1 [Example 788, N-[2-(2-{4-[1-((R)-2-Hydroxy-propyl)-piperidin-4-yl]-2-methoxy-phenylamino}-pyrrolo[2,1-f][1,2,4]triazin-7-yl)-phenyl]-N-methyl-methanesulfonamide] | 100 to 1000 | < 100 |
| COc1cc(N2CCCN(C3CCN(C)CC3)CC2)ccc1Nc1ncc2ccc(-c3ccccc3OC)n2n1 [Example 789, {2-Methoxy-4-[4-(1-methyl-piperidin-4-yl)-[1,4]diazepan-1-yl]-phenyl}-[7-(2-methoxy-phenyl)-pyrrolo[2,1-f][1,2,4]triazin-2-yl]-amine] | 100 to 1000 | < 100 |
| COc1cc(N2CCCN(C3CCN(C)CC3)CC2)ccc1Nc1ncc2ccc(-c3ccccc3N(C)S(C)(=O)=O)n2n1 [Example 790, N-[2-(2-{2-Methoxy-4-[4-(1-methyl-piperidin-4-yl)-[1,4]diazepan-1-yl]-phenylamino}-pyrrolo[2,1-f][1,2,4]triazin-7-yl)-phenyl]-N-methyl-methanesulfonamide] | 100 to 1000 | < 100 |
| COc1cc(C2CCN(CCF)CC2)ccc1Nc1ncc2ccc(-c3ccccc3OC)n2n1 [Example 791, {4-[1-(2-Fluoro-ethyl)-piperidin-4-yl]-2-methoxy-phenyl}-[7-(2-methoxy-phenyl)-pyrrolo[2,1-f][1,2,4]triazin-2-yl]-amine] | 100 to 1000 | < 100 |
| COc1cc(C2CCN(CCF)CC2)ccc1Nc1ncc2ccc(-c3ccccc3N(C)S(C)(=O)=O)n2n1 [Example 792, N-[2-(2-{4-[1-(2-Fluoro-ethyl)-piperidin-4-yl]-2-methoxy-phenylamino}-pyrrolo[2,1-f][1,2,4]triazin-7-yl)-phenyl]-N-methyl-methanesulfonamide] | 100 to 1000 | < 100 |
| COc1cc(C2CCN(CCO)CC2)ccc1Nc1ncc2ccc(-c3ccccc3N(C)S(C)(=O)=O)n2n1 [Example 793, N-[2-(2-{4-[1-(2-Hydroxy-ethyl)-piperidin-4-yl]-2-methoxy-henylamino}-pyrrolo[2,1-f][1,2,4]triazin-7-yl)-phenyl]-N-methyl-methanesulfonamide] | 100 to 1000 | < 100 |
